Measured values taken from patent US10669242B2 (priority 2016, dated 2020).

What follows are molecules tested against T1, recombinant glucosyltransferase domain of C. difficile Toxin B/TcdB (Clostridioides difficile, UniProt P18177) (assay: biochemical).
T1 construct: 6-His (C); purchased R&D Systems 6246-GT
T1 sequence (P18177 1-543): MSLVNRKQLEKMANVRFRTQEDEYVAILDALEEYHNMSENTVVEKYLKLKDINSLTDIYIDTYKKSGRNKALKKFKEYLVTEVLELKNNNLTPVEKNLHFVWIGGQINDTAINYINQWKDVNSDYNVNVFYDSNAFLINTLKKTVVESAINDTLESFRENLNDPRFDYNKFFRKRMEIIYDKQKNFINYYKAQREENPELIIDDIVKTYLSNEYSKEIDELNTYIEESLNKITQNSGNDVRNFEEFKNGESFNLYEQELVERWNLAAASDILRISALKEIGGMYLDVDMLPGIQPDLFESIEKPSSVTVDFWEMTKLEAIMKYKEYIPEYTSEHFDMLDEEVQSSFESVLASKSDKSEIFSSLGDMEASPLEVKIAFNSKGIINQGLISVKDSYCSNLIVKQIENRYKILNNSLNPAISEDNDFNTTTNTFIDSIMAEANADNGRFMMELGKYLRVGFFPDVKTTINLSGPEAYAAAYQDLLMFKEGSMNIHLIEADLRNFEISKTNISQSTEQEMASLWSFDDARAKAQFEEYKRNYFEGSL
`O=C(Nc1ccccn1)c1ccc(CN2C(=O)c3ccc(Cl)cc3NC(=O)[C@H]2Cc2ccccc2F)cc1` [Example 4an, (R)-4-((8-chloro-3-(2-fluorobenzyl)-2,5-dioxo-2,3-dihydro-1H-benzo[e][1,4]diazepin-4(5H)-yl)methyl)-N-(pyridin-2-yl)benzamide] was tested, and the IC50 was < 100 nM.
For `COc1ccc(NC(=O)c2ccc(CN3C(=O)c4ccc(Cl)cc4NC(=O)[C@H]3Cc3ccccn3)cc2)nc1` [Example 4ao, (R)-4-((8-chloro-2,5-dioxo-3-(pyridin-2-ylmethyl)-2,3-dihydro-1H-benzo[e][1,4]diazepin-4(5H)-yl)methyl)-N-(5-methoxypyridin-2-yl)benzamide], the IC50 was < 100 nM.
With `CCc1ccc(NC(=O)c2ccc(CN3C(=O)c4ccc(Cl)cc4NC(=O)[C@H]3Cc3ccccn3)cc2)nc1` [Example 4ap, (R)-4-((8-chloro-2,5-dioxo-3-(pyridin-2-ylmethyl)-2,3-dihydro-1H-benzo[e][1,4]diazepin-4(5H)-yl)methyl)-N-(5-ethylpyridin-2-yl)benzamide] the IC50 was < 100 nM.
With `O=C(Nc1ccccn1)c1ccc(CN2C(=O)c3ccc(Cl)cc3NC(=O)[C@@H]2Cc2ccccn2)cc1` [Example 4aq, (S)-4-((8-chloro-2,5-dioxo-3-(pyridin-2-ylmethyl)-2,3-dihydro-1H-benzo[e][1,4]diazepin-4(5H)-yl)methyl)-N-(pyridin-2-yl)benzamide] the IC50 was < 100 nM.
For `CC1(C)Cc2cccnc2N1C(=O)c1ccc(CN2C(=O)c3ccc(Cl)cc3NC(=O)[C@H]2Cc2ccccn2)cc1Cl` [Example 4ar, (R)-8-chloro-4-(3-chloro-4-(2,2-dimethyl-2,3-dihydro-1H-pyrrolo[2,3-b]pyridine-1-carbonyl)benzyl)-3-(pyridin-2-ylmethyl)-3,4-dihydro-1H-benzo[e][1,4]diazepine-2,5-dione], the IC50 was < 100 nM.
`CC1(C)CN(C(=O)c2ccc(CN3C(=O)c4ccc(Cl)cc4NC(=O)[C@H]3Cc3ccccn3)cc2Cl)c2ncccc21` [Example 4as, (R)-8-chloro-4-(3-chloro-4-(3,3-dimethyl-2,3-dihydro-1H-pyrrolo[2,3-b]pyridine-1-carbonyl)benzyl)-3-(pyridin-2-ylmethyl)-3,4-dihydro-1H-benzo[e][1,4]diazepine-2,5-dione] was tested, and the IC50 was < 100 nM.
With `CC(C)c1ccc(NC(=O)c2ccc(CN3C(=O)c4ccc(Cl)cc4NC(=O)[C@H]3Cc3cccnc3)cc2)nc1` [Example 4at, (R)-4-((8-chloro-2,5-dioxo-3-(pyridin-3-ylmethyl)-2,3-dihydro-1H-benzo[e][1,4]diazepin-4(5H)-yl)methyl)-N-(5-isopropylpyridin-2-yl)benzamide] the IC50 was < 100 nM.
In the case of `O=C(Nc1ccc(N2CCOCC2)cn1)c1ccc(CN2C(=O)c3ccc(Cl)cc3NC(=O)[C@H]2Cc2ccccn2)cc1` [Example 4av, (R)-4-((8-chloro-2,5-dioxo-3-(pyridin-2-ylmethyl)-2,3-dihydro-1H-benzo[e][1,4]diazepin-4(5H)-yl)methyl)-N-(5-morpholinopyridin-2-yl)benzamide], the IC50 is reported as < 100 nM.
In the case of `CC(C)(C)OC(=O)N1CCN(c2ccc(NC(=O)c3ccc(CN4C(=O)c5ccc(Cl)cc5NC(=O)[C@H]4Cc4ccccn4)cc3)nc2)CC1` [Example 4aw, (R)-tert-butyl 4-(6-(4-((8-chloro-2,5-dioxo-3-(pyridin-2-ylmethyl)-2,3-dihydro-1H-benzo[e][1,4]diazepin-4(5H)-yl)methyl)benzamido)pyridin-3-yl)piperazine-1-carboxylate], the IC50 is reported as 100 to 999 nM.
For `CN1CCN(c2ccc(NC(=O)c3ccc(CN4C(=O)c5ccc(Cl)cc5NC(=O)[C@H]4Cc4ccccn4)cc3)nc2)CC1` [Example 4ax, (R)-4-((8-chloro-2,5-dioxo-3-(pyridin-2-ylmethyl)-2,3-dihydro-1H-benzo[e][1,4]diazepin-4(5H)-yl)methyl)-N-(5-(4-methylpiperazin-1-yl)pyridin-2-yl)benzamide], the IC50 was < 100 nM.
`CCc1ccc(NC(=O)c2ccc(CN3C(=O)c4ccc(Cl)cc4NC(=O)[C@H]3C)cc2)nc1` [Example 4ay, (R)-4-((8-chloro-3-methyl-2,5-dioxo-2,3-dihydro-1H-benzo[e][1,4]diazepin-4(5H)-yl)methyl)-N-(5-ethylpyridin-2-yl)benzamide] was tested, and the IC50 was 100 to 999 nM.
For `CC(C)c1ccc(NC(=O)c2ccc(CN3C(=O)c4ccc(Cl)cc4NC(=O)[C@H]3C)cc2)nc1` [Example 4az, (R)-4-((8-chloro-3-methyl-2,5-dioxo-2,3-dihydro-1H-benzo[e][1,4]diazepin-4(5H)-yl)methyl)-N-(5-isopropylpyridin-2-yl)benzamide], the IC50 was 100 to 999 nM.
With `COc1ccc(NC(=O)c2ccc(CN3C(=O)c4ccc(Cl)cc4NC(=O)[C@H]3C)cc2)nc1` [Example 4ba, (R)-4-((8-chloro-3-methyl-2,5-dioxo-2,3-dihydro-1H-benzo[e][1,4]diazepin-4(5H)-yl)methyl)-N-(5-methoxypyridin-2-yl)benzamide] the IC50 was 100 to 999 nM.
Work on `C[C@@H]1C(=O)Nc2cc(Cl)ccc2C(=O)N1Cc1ccc(C(=O)Nc2cc3ccccc3cn2)cc1` [Example 4bb, (R)-4-((8-chloro-3-methyl-2,5-dioxo-2,3-dihydro-1H-benzo[e][1,4]diazepin-4(5H)-yl)methyl)-N-(isoquinolin-3-yl)benzamide] yielded an IC50 of 100 to 999 nM.
For `C[C@@H]1C(=O)Nc2cc(Cl)ccc2C(=O)N1Cc1ccc(C(=O)Nc2ccc(-c3ccccc3)cn2)cc1` [Example 4bc, (R)-4-((8-chloro-3-methyl-2,5-dioxo-2,3-dihydro-1H-benzo[e][1,4]diazepin-4(5H)-yl)methyl)-N-(5-phenylpyridin-2-yl)benzamide], the IC50 was 100 to 999 nM.
In the case of `O=C(Nc1ccccn1)c1ccc(CN2C(=O)c3ccc(Br)cc3NC(=O)[C@H]2Cc2cccnc2)cc1` [Example 4bd, (R)-4-((8-bromo-2,5-dioxo-3-(pyridin-3-ylmethyl)-2,3-dihydro-1H-benzo[e][1,4]diazepin-4(5H)-yl)methyl)-N-(pyridin-2-yl)benzamide], the IC50 is reported as < 100 nM.
In the case of `COc1cnc(NC(=O)c2ccc(CN3C(=O)c4ccc(Cl)cc4NC(=O)[C@H]3C)cc2)nc1` [Example 4be, (R)-4-((8-chloro-3-methyl-2,5-dioxo-2,3-dihydro-1H-benzo[e][1,4]diazepin-4(5H)-yl)methyl)-N-(5-methoxypyrimidin-2-yl)benzamide], the IC50 is reported as < 100 nM.
In the case of `C[C@@H]1C(=O)Nc2cc(Cl)ccc2C(=O)N1Cc1ccc(C(=O)Nc2ccc(N3CCOCC3)cn2)cc1` [Example 4bf, (R)-4-((8-chloro-3-methyl-2,5-dioxo-2,3-dihydro-1H-benzo[e][1,4]diazepin-4(5H)-yl)methyl)-N-(5-morpholinopyridin-2-yl)benzamide], the IC50 is reported as 100 to 999 nM.
`C[C@@H]1C(=O)Nc2cc(Cl)ccc2C(=O)N1Cc1ccc(C(=O)Nc2ccc(N3CCN(C(=O)OC(C)(C)C)CC3)cn2)cc1` [Example 4bg, (R)-tert-butyl 4-(6-(4-((8-chloro-3-methyl-2,5-dioxo-2,3-dihydro-1H-benzo[e][1,4]diazepin-4(5H)-yl)methyl)benzamido)pyridin-3-yl)piperazine-1-carboxylate] was tested, and the IC50 was 100 to 999 nM.
`C[C@@H]1C(=O)Nc2cc(Cl)ccc2C(=O)N1Cc1ccc(C(=O)Nc2ccc(N3CCN(C)CC3)cn2)cc1` [Example 4bh, (R)-4-((8-chloro-3-methyl-2,5-dioxo-2,3-dihydro-1H-benzo[e][1,4]diazepin-4(5H)-yl)methyl)-N-(5-(4-methylpiperazin-1-yl)pyridin-2-yl)benzamide] was tested, and the IC50 was 100 to 999 nM.
Molecule `Cc1cnc(NC(=O)c2ccc(CN3C(=O)c4ccc(Cl)cc4NC(=O)[C@H]3C)cc2)cn1` [Example 4bi, (R)-4-((8-chloro-3-methyl-2,5-dioxo-2,3-dihydro-1H-benzo[e][1,4]diazepin-4(5H)-yl)methyl)-N-(5-methylpyrazin-2-yl)benzamide] has an IC50 of 100 to 999 nM.
Molecule `Cc1nnc(NC(=O)c2ccc(CN3C(=O)c4ccc(Cl)cc4NC(=O)[C@H]3Cc3ccccn3)cc2)[nH]1` [Example 4bj, (R)-4-((8-chloro-2,5-dioxo-3-(pyridin-2-ylmethyl)-2,3-dihydro-1H-benzo[e][1,4]diazepin-4(5H)-yl)methyl)-N-(5-methyl-4H-1,2,4-triazol-3-yl)benzamide] has an IC50 of 1000 to 10000 nM.
`Cc1nsc(NC(=O)c2ccc(CN3C(=O)c4ccc(Cl)cc4NC(=O)[C@H]3Cc3ccccn3)cc2)n1` [Example 4bk, (R)-4-((8-chloro-2,5-dioxo-3-(pyridin-2-ylmethyl)-2,3-dihydro-1H-benzo[e][1,4]diazepin-4(5H)-yl)methyl)-N-(3-methyl-1,2,4-thiadiazol-5-yl)benzamide] was tested, and the IC50 was 10000 to 35000 nM.
`O=C(Nc1cccnn1)c1ccc(CN2C(=O)c3ccc(Cl)cc3NC(=O)[C@H]2Cc2ccccn2)cc1` [Example 4bl, (R)-4-((8-chloro-2,5-dioxo-3-(pyridin-2-ylmethyl)-2,3-dihydro-1H-benzo[e][1,4]diazepin-4(5H)-yl)methyl)-N-(pyridazin-3-yl)benzamide] was tested, and the IC50 was 100 to 999 nM.
With `COc1ccc(NC(=O)c2ccc(CN3C(=O)c4ccc(Cl)cc4NC(=O)[C@H]3Cc3ccccn3)cc2)nn1` [Example 4bm, (R)-4-((8-chloro-2,5-dioxo-3-(pyridin-2-ylmethyl)-2,3-dihydro-1H-benzo[e][1,4]diazepin-4(5H)-yl)methyl)-N-(6-methoxypyridazin-3-yl)benzamide] the IC50 was < 100 nM.
`Cc1nnc(NC(=O)c2ccc(CN3C(=O)c4ccc(Cl)cc4NC(=O)[C@H]3Cc3ccccn3)cc2)s1` [Example 4bn, (R)-4-((8-chloro-2,5-dioxo-3-(pyridin-2-ylmethyl)-2,3-dihydro-1H-benzo[e][1,4]diazepin-4(5H)-yl)methyl)-N-(5-methyl-1,3,4-thiadiazol-2-yl)benzamide] was tested, and the IC50 was 1000 to 10000 nM.
`Cc1nnc(NC(=O)c2ccc(CN3C(=O)c4ccc(Cl)cc4NC(=O)[C@H]3Cc3ccccn3)cc2)o1` [Example 4bo, (R)-4-((8-chloro-2,5-dioxo-3-(pyridin-2-ylmethyl)-2,3-dihydro-1H-benzo[e][1,4]diazepin-4(5H)-yl)methyl)-N-(5-methyl-1,3,4-oxadiazol-2-yl)benzamide] was tested, and the IC50 was < 100 nM.
`O=C(Nc1nncs1)c1ccc(CN2C(=O)c3ccc(Cl)cc3NC(=O)[C@H]2Cc2ccccn2)cc1` [Example 4bp, (R)-4-((8-chloro-2,5-dioxo-3-(pyridin-2-ylmethyl)-2,3-dihydro-1H-benzo[e][1,4]diazepin-4(5H)-yl)methyl)-N-(1,3,4-thiadiazol-2-yl)benzamide] showed an IC50 of 100 to 999 nM.
